Measurements published in patent US10112958B2, “N-[2-(2-amino-6,6-disubstituted-4,4a,5,6-tetrahydropyrano[3,4-d][1,3]thiazin-8a(8H)-YL)-1,3-thiazol-4-YL] amides” (Pfizer Inc., priority 2015, dated 2018).

target: T1, BACE1 enzyme (Homo sapiens, UniProt P56817); assay: BACE1 Cell-Free Assay (fluorescence polarization, cleavage of synthetic APP substrate); format: biochemical; conditions: geometric mean of 2-4 determinations unless otherwise indicated (b: ≥5 determinations; c: single determination); 0.1 nM BACE1, 150 nM peptide substrate, pH 4.5, 3 hours at 37° C.
T1 construct: transfected with a soluble BACE construct (BACE1deltaTM96His); His (C); made in house; host or cells: CHO-K1 cells (secreted into conditioned media)
T1 sequence (P56817 46-457 limits assumed): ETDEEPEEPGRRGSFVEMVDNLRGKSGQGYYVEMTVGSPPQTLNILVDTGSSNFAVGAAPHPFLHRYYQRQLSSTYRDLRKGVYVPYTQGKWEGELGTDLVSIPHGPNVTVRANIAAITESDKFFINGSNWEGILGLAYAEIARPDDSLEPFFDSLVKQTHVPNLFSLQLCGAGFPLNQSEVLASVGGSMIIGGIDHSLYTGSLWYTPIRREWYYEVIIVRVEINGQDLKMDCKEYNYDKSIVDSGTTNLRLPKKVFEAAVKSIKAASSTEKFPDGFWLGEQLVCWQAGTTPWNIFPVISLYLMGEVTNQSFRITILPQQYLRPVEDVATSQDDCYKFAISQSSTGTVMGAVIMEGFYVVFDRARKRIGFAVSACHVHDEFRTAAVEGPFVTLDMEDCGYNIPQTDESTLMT
From the text: BACE1 Cell-Free Assay: Beta-secretase (BACE) is one of the enzymes involved in the generation of the amyloid beta peptide found in the amyloid plaques of Alzheimer's disease patients. This assay measures the inhibition of the beta-secretase enzyme as it cleaves a non-native peptide.
A synthetic APP substrate that can be cleaved by beta-secretase having N-terminal biotin and made fluorescent by the covalent attachment of Oregon Green at the Cys residue is used to assay beta-secretase activity in the presence or absence of the inhibitory compounds. The substrate is Biotin-GLTNIKTEEISEISY^EVEFR-C[Oregon Green]KK-OH. The BACE1 enzyme is affinity purified material from conditioned media of CHO-K1 cells that have been transfected with a soluble BACE construct (BACE1deltaTM96His). Compounds are incubated in a ½ log dose response curve from a top concentration of 100 μM with BACE1 enzyme and the biotinylated fluorescent peptide in 384-well black plates (Thermo Scientific #4318). BACE1 is at a final concentration of 0.1 nM with a final concentration of peptide substrate of 150 nM in a reaction volume of 30 μL assay buffer [100 mM sodium acetate, pH 4.5 (brought to pH with acetic acid), and 0.001% Tween-20]. Plates are covered and incubated for 3 hours at 37° C. The reaction is stopped with the addition of 30 μL of 1.5 μM Streptavidin (Pierce, #21125). After a 10 minute incubation at room temperature, plates are read on a PerkinElmer EnVision for fluorescence polarization (Ex485 nm/Em530 nm). The activity of the beta-secretase enzyme is detected by changes in the fluorescence polarization that occur when the substrate is cleaved by the enzyme.

Point of comparison: CC1(C)C[C@H]2CSC(N)=N[C@@]2(c2nc(NC(=O)c3ccn(C(F)F)n3)cs2)CO1 (single isomer, unassigned) [Example 12], IC50 22 nM. Against it:
- NC1=N[C@@]2(c3nc(NC(=O)c4ccc(OC(F)F)cn4)cs3)COC3(CCC3)C[C@H]2CS1 (racemic) [Example 3, N-{2-[cis-2′-amino-4a′,5′-dihydro-4′H-spiro[cyclobutane-1,6′-pyrano[3,4-d][1,3]thiazin]-8a′(8′H)-yl]-1,3-thiazol-4-yl}-5-(difluoromethoxy)pyridine-2-carboxamide] — 11-fold higher, 252 nM
- CC#CCOc1ccc(C(=O)Nc2csc([C@@]34COC(C)(C)C[C@@H]3CSC(N)=N4)n2)nc1 (single isomer, unassigned) [Example 1] — 1400-fold higher, 31000 nM
- CC#CCOc1ccc(C(=O)Nc2csc([C@]34COC(C)(C)C[C@H]3CSC(N)=N4)n2)nc1 (single isomer, unassigned) [Example 2] — 4-fold higher, 88 nM
- NC1=N[C@]2(c3nc(NC(=O)c4ccc(OC(F)F)cn4)cs3)COC3(CCC3)C[C@@H]2CS1 (single isomer, unassigned) [Example 4, N-{2-[(4a′S,8a′S)-2′-amino-4a′,5′-dihydro-4′H-spiro[cyclobutane-1,6′-pyrano[3,4-d] [1,3]thiazin]-8a′(8′H)-yl]-1,3-thiazol-4-yl}-5-(difluoromethoxy)pyridine-2-carboxamide] — higher, > 21100 nM
- NC1=N[C@@]2(c3nc(NC(=O)c4ccc(OC(F)F)cn4)cs3)COC3(CCC3)C[C@H]2CS1 (single isomer, unassigned) [Example 5, N-{2-[(4a′R,8a′R)-2′-amino-4a′,5′-dihydro-4′H-spiro[cyclobutane-1,6′-pyrano[3,4-d] [1,3]thiazin]-8a′(8′H)-yl]-1,3-thiazol-4-yl}-5-(difluoromethoxy)pyridine-2-carboxamide] — 6.3-fold higher, 138 nM
- CC1(C)C[C@@H]2CSC(N)=N[C@]2(c2nc(NC(=O)c3ccn(C(F)F)n3)cs2)CO1 (single isomer, unassigned) [Example 11] — 320-fold higher, 6960 nM
- CC1(C)C[C@@H]2CSC(N)=N[C@]2(c2nc(NC(=O)c3cnc(OC(F)F)cn3)cs2)CO1 (single isomer, unassigned) [Example 13] — 360-fold higher, 7950 nM
- CC1(C)C[C@H]2CSC(N)=N[C@@]2(c2nc(NC(=O)c3cnc(OC(F)F)cn3)cs2)CO1 (single isomer, unassigned) [Example 14] — 7.6-fold higher, 167 nM
- CC1(C)C[C@@H]2CSC(N)=N[C@]2(c2nc(NC(=O)c3ccc(OC(F)F)cn3)cs2)CO1 (single isomer, unassigned) [Example 15] — 1000-fold higher, 22200 nM
- CC(F)(F)Oc1ccc(C(=O)Nc2csc([C@@]34COC(C)(C)C[C@@H]3CSC(N)=N4)n2)nc1 (single isomer, unassigned) [Example 16] — 1300-fold higher, 28500 nM
- CC(F)(F)Oc1ccc(C(=O)Nc2csc([C@]34COC(C)(C)C[C@H]3CSC(N)=N4)n2)nc1 (single isomer, unassigned) [Example 17] — 19-fold higher, 416 nM
- CC(F)(F)COc1cnc(C(=O)Nc2csc([C@@]34COC(C)(C)C[C@@H]3CSC(N)=N4)n2)cn1 (single isomer, unassigned) [Example 18] — 2800-fold higher, 61700 nM
- CC(F)(F)COc1cnc(C(=O)Nc2csc([C@]34COC(C)(C)C[C@H]3CSC(N)=N4)n2)cn1 (single isomer, unassigned) [Example 19] — 19-fold higher, 421 nM
- CC#CCOc1cnc(C(=O)Nc2csc([C@@]34COC(C)(C)C[C@@H]3CSC(N)=N4)n2)cn1 (single isomer, unassigned) [Example 20] — 700-fold higher, 15500 nM
- CC#CCOc1cnc(C(=O)Nc2csc([C@]34COC(C)(C)C[C@H]3CSC(N)=N4)n2)cn1 (single isomer, unassigned) [Example 21] — 1.9-fold higher, 41 nM
- CC1(C)C[C@@H]2CSC(N)=N[C@]2(c2nc(NC(=O)c3coc(CF)n3)cs2)CO1 (single isomer, unassigned) [Example 22] — 690-fold higher, 15100 nM
- CC1(C)C[C@H]2CSC(N)=N[C@@]2(c2nc(NC(=O)c3coc(CF)n3)cs2)CO1 (single isomer, unassigned) [Example 23] — within 1.5-fold, 17 nM
- Cc1cc(OC(F)F)cnc1C(=O)Nc1csc([C@@]23COC(C)(C)C[C@@H]2CSC(N)=N3)n1 (single isomer, unassigned) [Example 25] — 670-fold higher, 14800 nM
- NC1=N[C@]2(c3nc(NC(=O)c4ccc(OC(F)F)cn4)cs3)COC3(CC3)C[C@@H]2CS1 (single isomer, unassigned) [Example 38, N-{2-[(4a′S,8a′S)-2′-amino-4a′,5′-dihydro-4′H-spiro[cyclopropane-1,6′-pyrano[3,4-d][1,3]thiazin]-8a′(8′H)-yl]-1,3-thiazol-4-yl}-5-(difluoromethoxy)pyridine-2-carboxamide] — 1600-fold higher, 34500 nM
- NC1=N[C@@]2(c3nc(NC(=O)c4ccc(OC(F)F)cn4)cs3)COC3(CC3)C[C@H]2CS1 (single isomer, unassigned) [Example 39, N-{2-[(4a′R,8a′R)-2′-amino-4a′,5′-dihydro-4′H-spiro[cyclopropane-1,6′-pyrano[3,4-d] [1,3]thiazin]-8a′(8′H)-yl]-1,3-thiazol-4-yl}-5-(difluoromethoxy)pyridine-2-carboxamide] — 14-fold higher, 314 nM
- NC1=N[C@@]2(c3nc(NC(=O)c4ccc(Cl)cn4)cs3)COC3(CCC3)C[C@H]2CS1 [Example 6, N-{2-[(4a′R,8a′R)-2′-amino-4a′,5′-dihydro-4′H-spiro[cyclobutane-1,6′-pyrano[3,4-d][1,3]thiazin]-8a′(8′H)-yl]-1,3-thiazol-4-yl}-5-chloropyridine-2-carboxamide] — 4-fold higher, 88 nM
- CC1(C)C[C@H]2CSC(N)=N[C@@]2(c2nc(NC(=O)c3ccc(OC(F)F)cn3)cs2)CO1 [Example 7, N-{2-[(4aR,8aR)-2-amino-6,6-dimethyl-4,4a,5,6-tetrahydropyrano[3,4-d][1,3]thiazin-8a(8H)-yl]-1,3-thiazol-4-yl}-5-(difluoromethoxy)pyridine-2-carboxamide] — 5.3-fold higher, 116 nM
- CC[C@@]1(C)C[C@H]2CSC(N)=N[C@@]2(c2nc(NC(=O)c3ccc(OC(F)F)cn3)cs2)CO1 [Example 8, N-{2-[(4aR,6S,8aR)-2-amino-6-ethyl-6-methyl-4,4a,5,6-tetrahydropyrano[3,4-d] [1,3]thiazin-8a(8H)-yl]-1,3-thiazol-4-yl}-5-(difluoromethoxy)pyridine-2-carboxamide] — 1.9-fold higher, 41 nM
- COC[C@@]1(C)C[C@H]2CSC(N)=N[C@@]2(c2nc(NC(=O)c3ccc(OC(F)F)cn3)cs2)CO1 [Example 9, N-{2-[(4aR,6R,8aR)-2-amino-6-(methoxymethyl)-6-methyl-4,4a,5,6-tetrahydropyrano[3,4-d][1,3]thiazin-8a(8H)-yl]-1,3-thiazol-4-yl}-5-(difluoromethoxy) pyridine-2-carboxamide] — 4.8-fold higher, 105 nM
- NC1=N[C@@]2(c3nc(NC(=O)c4ccc(OC(F)F)cn4)cs3)COC(CF)(CF)C[C@H]2CS1 [Example 10, N-{2-[(4aR,8aR)-2-amino-6,6-bis(fluoromethyl)-4,4a,5,6-tetrahydropyrano[3,4-d][1,3]thiazin-8a(8H)-yl]-1,3-thiazol-4-yl}-5-(difluoromethoxy)pyridine-2-carboxamide] — 26-fold higher, 565 nM
- Cc1cc(OC(F)F)cnc1C(=O)Nc1csc([C@]23COC(C)(C)C[C@H]2CSC(N)=N3)n1 [Example 24, N-{2-[(4aR,8aR)-2-amino-6,6-dimethyl-4,4a,5,6-tetrahydropyrano[3,4-d][1,3]thiazin-8a(8H)-yl]-1,3-thiazol-4-yl}-5-(difluoromethoxy)-3-methylpyridine-2-carboxamide] — 2.1-fold higher, 47 nM
- CC[C@@]1(C)C[C@@H]2CSC(N)=N[C@]2(c2nc(NC(=O)c3ccc(OC(F)F)cn3)cs2)CO1 [Example 26, N-{2-[(4aS,6S,8aS)-2-amino-6-ethyl-6-methyl-4,4a,5,6-tetrahydropyrano[3,4-d][1,3]thiazin-8a(8H)-yl]-1,3-thiazol-4-yl}-5-(difluoromethoxy)pyridine-2-carboxamide] — 18-fold higher, 406 nM
- CC[C@]1(C)C[C@H]2CSC(N)=N[C@@]2(c2nc(NC(=O)c3ccc(OC(F)F)cn3)cs2)CO1 [Example 27, N-{2-[(4aR,6R,8aR)-2-amino-6-ethyl-6-methyl-4,4a,5,6-tetrahydropyrano[3,4-d][1,3]thiazin-8a(8H)-yl]-1,3-thiazol-4-yl}-5-(difluoromethoxy)pyridine-2-carboxamide] — 83-fold higher, 1830 nM
- CC[C@]1(C)C[C@@H]2CSC(N)=N[C@]2(c2nc(NC(=O)c3ccc(OC(F)F)cn3)cs2)CO1 [Example 28, N-{2-[(4aS,6R,8aS)-2-amino-6-ethyl-6-methyl-4,4a,5,6-tetrahydropyrano[3,4-d][1,3]thiazin-8a(8H)-yl]-1,3-thiazol-4-yl}-5-(difluoromethoxy)pyridine-2-carboxamide] — 670-fold higher, 14800 nM
